Consider 124 compounds from a melting point compilation (Tetko et al.).

SMILES strings stand for the structures.

Regarding `NS(=O)(=O)C1CCCCC1`, the melting point lay in the range of 91 to 93 °C.
Compound `Nc1ccc(C(=O)NCC(F)(F)F)cc1` showed a melting point of 157 to 159 °C.
`O=C(O)C(Oc1cccc(Cl)c1Cl)c1ccccc1` (centres undefined) displayed a melting point of 147 to 149 °C.
Turning to `O=C1CCCc2c(Br)cccc2N1`, the melting point fell in the range of 169 to 171 °C.
The value for `Cn1cc(CO)nn1` was 29 to 31 °C; that for `CN(C)Cc1nnc(S)o1` was 202 to 204 °C.
In turn, `NS(=O)(=O)c1cccnc1Cl` came in with a melting point of 183 to 185 °C.
The same measure for `O=C(O)C(Cc1ccccc1)NS(=O)(=O)c1ccccc1F` (centres undefined): 258 to 260 °C; for `Cc1cc(C(=O)O)cc(C)c1OCC(=O)N1CCCCC1`: 175 to 177 °C.
The same measure for `NS(=O)(=O)Cc1cccnc1`: 154 to 156 °C; for `CCNC(=O)CN1CCNCC1`: 83 to 85 °C.
Compound `CS(=O)c1c(N)cccc1Cl` (centres undefined) came in with a melting point of 107 to 109 °C.
`Nc1nc2ccc(C(F)(F)F)cc2[nH]1` showed a melting point of 134 to 136 °C.
The compound `Nn1c(S)nnc1Cc1ccccc1` returned a melting point of 179 to 181 °C.
Compound `O=C(O)Cn1c(-c2cscn2)nc2ccccc21` returned a melting point of 256 to 258 °C.
The value for `O=C1CCc2[nH]c3ccccc3c2C1` was 129 to 131 °C; that for `Oc1cccc(-n2cnnn2)c1` was 174 to 176 °C; that for `CC1CCc2c(sc3nc(S)n(Cc4ccco4)c(=O)c23)C1` (centres undefined) was 275 to 277 °C.
The same measure for `O=C1C=CC=NC1=C(O)Nc1cnccn1`: 156 to 158 °C; for `Clc1ccc(-n2cccn2)nn1`: 142 to 144 °C.
The same measure for `O=C(O)Cc1coc2cc(O)ccc12`: 127 to 129 °C; for `CC(C)(C)c1ccc(C(O)CCC(=O)O)cc1` (centres undefined): 127 to 129 °C; for `CC(=O)Nc1cccc(S(=O)(=O)Cl)c1`: 78 to 80 °C.
Turning to `CS(=O)(=O)c1cccc(C(=O)c2cc(F)ccc2F)c1`, the melting point is 87 to 89 °C.
`O=S(=O)(Cl)Cc1cc(-c2ccc(F)cc2)no1` came in with a melting point of 108 to 110 °C.
The same measure for `NCCN1C(=O)Cc2ccccc21`: 88 to 90 °C; for `N#CC(N)c1ccc(Cl)cc1Cl` (centres undefined): 80 to 82 °C.
Compound `Cc1nc(S)n(C2CC2)c1C` had a melting point of 178 to 180 °C.
For the compound `Nc1nc(-c2ccccc2OC(F)F)n[nH]1`, the melting point lay in the range of 188 to 190 °C.
The same measure for `CNc1cc(-c2ccccc2)[nH]n1`: 122 to 124 °C.
The compound `CNCC(=O)N1CCN(C(=O)OC(C)(C)C)CC1` had a melting point of 64 to 66 °C.
In turn, `CC(Br)c1ccc([N+](=O)[O-])cc1` (centres undefined) displayed a melting point of 33 to 35 °C.
The compound `O=C(O)CCCn1cccn1` had a melting point of 74 to 76 °C.
`Nc1ccc2c(Br)ccc(Cl)c2n1` returned a melting point of 249 to 251 °C.
On to `NC(=O)c1ccc(OCC(=O)O)cc1`, for which the melting point was 264 to 266 °C.
The same measure for `O=C(O)c1n[nH]c2ccc(Cl)cc12`: 271 to 273 °C; for `C#CCS(=O)(=O)CCNC(=O)OC(C)(C)C`: 126 to 128 °C.
With `O=C(O)CSc1nnc(-c2ccco2)o1`, the melting point lay within 152 to 155 °C.
`COc1ccc(N)cc1Br` had a melting point of 58 to 60 °C.
Turning to `Cc1cnn(-c2ccccc2)c1N`, the melting point fell in the range of 79 to 81 °C.
The same measure for `COc1cc(C=O)ccc1OCC(=O)c1ccc(Cl)c(Cl)c1`: 137 to 139 °C; for `CCOC(=O)c1cc(N)[nH]n1`: 118 to 120 °C.
With `Oc1cccc2[nH]ncc12`, the melting point was 164 to 166 °C.
`CC(Cl)C(=O)N(CCC#N)c1ccccc1` (centres undefined) displayed a melting point of 74 to 76 °C.
The value for `CCC(=O)c1cnccc1N` was 134 to 136 °C.
The value for `CCOC(=O)c1ccc(C(C)=O)cc1` was 55 to 57 °C.
`Cc1c(C(=O)O)cccc1S(N)(=O)=O` displayed a melting point of 218 to 220 °C.
`CCOc1cccc(C=CC(=O)O)c1OC1CCCCC1` gave a melting point of 137 to 139 °C.
Turning to `Clc1ccc(-n2cccn2)cc1Cl`, the melting point fell in the range of 59 to 61 °C.
With `O=C(O)c1ccc(Br)c(S(=O)(=O)N2CCOCC2)c1`, the melting point lay within 167 to 169 °C.
Turning to `C#CCOc1ccc(C(C)=O)cc1`, the melting point is 72 to 74 °C.
`N#Cc1ccc(S(N)(=O)=O)cc1C(F)(F)F` returned a melting point of 195 to 197 °C.
As to `CC(Sc1nncn1C)C(=O)O` (centres undefined), the melting point was in the range of 157 to 159 °C.
For `O=c1[nH]ccn(C2CC2)c1=O`, the melting point lay within 161 to 163 °C.
Regarding `CC=Cc1ccc(OCC(=O)OC)c(OC)c1`, the melting point is 68 to 70 °C.
The same measure for `COC(=O)c1c(S)nc(=O)[nH]c1C`: 225 to 227 °C.
`O=S(=O)(Cl)CCS(=O)(=O)c1ccccc1` returned a melting point of 172 to 174 °C.
Regarding `C#CCNC(=O)Nc1ccccc1`, the melting point was in the range of 133 to 135 °C.
The compound `Cc1ccc(CNC(=O)c2c[nH]nc2N)cc1` showed a melting point of 168 to 170 °C.
The same measure for `C#CCNC(=O)Nc1ccccc1[N+](=O)[O-]`: 190 to 192 °C; for `CC(C)N1N=C(C(=O)O)CCC1=O`: 131 to 133 °C.
`CC(C)CC(N)C(=O)N1CCNC(=O)C1` (centres undefined) showed a melting point of 162 to 164 °C.
In turn, `CS(=O)(=O)c1ccc(C(=O)O)cc1[N+](=O)[O-]` showed a melting point of 274 to 276 °C.
The value for `CC1CSc2ccc(Cl)cc2NC1=O` (centres undefined) was 222 to 224 °C.
On to `CC(C(=O)O)n1cc(Cl)cn1` (centres undefined), for which the melting point fell in the range of 56 to 59 °C.
Compound `CC(CO)NC(=O)c1ccc(N)cc1` (centres undefined) displayed a melting point of 174 to 176 °C.
The same measure for `CCOC(=O)c1oc2ccc(Br)cc2c1C`: 89 to 91 °C; for `CC(C(N)=NO)n1ccnc1` (centres undefined): 151 to 153 °C.
With `CCOc1ccc(Oc2ccccc2N)cc1`, the melting point lay within 158 to 160 °C.
`O=C(O)c1cccnc1Sc1ccc(Br)cc1` gave a melting point of 223 to 225 °C.
Turning to `CC1CCN(Cc2ccccc2)c2ccccc2N1` (centres undefined), the melting point fell in the range of 68 to 70 °C.
`O=C(O)c1cc2c(s1)CCCC2` gave a melting point of 179 to 181 °C.
Compound `Cn1cc(N)cc(Br)c1=O` yielded a melting point of 159 to 161 °C.
Turning to `Cc1cc(Cl)n(-c2ccc(C#N)cc2)n1`, the melting point was in the range of 103 to 105 °C.
For `Cn1c(=O)[nH]c2ccc(C(=O)O)cc21`, the melting point was in the range of 366 to 368 °C.
Take `CC1CCN(C(N)=S)CC1`: the melting point is 103 to 105 °C.
The same measure for `CC1Oc2ccc(Cl)cc2NC1=O` (centres undefined): 171 to 173 °C; for `Nc1nonc1-c1cccc(Br)c1`: 137 to 139 °C; for `COc1ccc(-n2nc(N)cc2C)cc1`: 87 to 89 °C.
As to `CC(=CC(=O)O)c1ccccc1OC(F)F`, the melting point was in the range of 69 to 71 °C.
The same measure for `Oc1cccc(-n2cncn2)c1`: 181 to 183 °C; for `NC(=O)Nc1ccc2c(c1)OCCO2`: 159 to 161 °C.
On to `CCOC(=O)c1c(N)sc(C(=O)OC)c1CC(=O)OC`, for which the melting point lay within 168 to 170 °C.
On to `CC(=O)Nc1ccc(S(=O)(=O)NCCC(=O)O)cc1`, for which the melting point lay in the range of 160 to 162 °C.
Turning to `CNCCCc1cc(-c2ccc(F)cc2)no1`, the melting point lay in the range of 146 to 148 °C.
In turn, `O=C(O)c1ccccc1OCc1ccc(Cl)cc1` returned a melting point of 85 to 87 °C.
In turn, `C#CCN1CCNC1=O` gave a melting point of 119 to 121 °C.
In turn, `Cn1c(CO)nnc1C1CCC1` yielded a melting point of 133 to 135 °C.
The value for `Cc1ccc(Oc2cc(C#N)ccn2)cc1C` was 63 to 65 °C; that for `O=C(NCc1ccncc1)c1ccc(O)c(Cl)c1` was 179 to 181 °C; that for `CCOC(=O)CS(=O)(=O)c1ccc(Br)cc1` was 45 to 47 °C.
The value for `Cc1cc(C(=O)CCl)c(C)n1C(C)C` was 45 to 47 °C; that for `CC1(C)NC(=O)N=C1N` was 259 to 261 °C; that for `O=C(CCCc1ccc(Br)cc1)c1ccccc1` was 84 to 86 °C.
`Cc1cc(S(N)(=O)=O)cc(N)c1C`: the melting point lay in the range of 159 to 161 °C.
`COC(=O)c1cccc(-c2nn[nH]n2)c1` came in with a melting point of 189 to 191 °C.
As to `COC(=O)c1c(C)nn(C)c1Cl`, the melting point lay in the range of 36 to 38 °C.
With `COc1cc2c(cc1[N+](=O)[O-])C(=O)CCC2`, the melting point was in the range of 176 to 178 °C.
`CC(Nc1nc2ccccc2s1)C(=O)NN` (centres undefined): the melting point was 174 to 176 °C.
Consider `CC(C(=O)O)c1ccc2ccccc2c1` (centres undefined), for which the melting point lay in the range of 120 to 122 °C.
Compound `CC1CCCCC12NC(=O)N(CC(=O)O)C2=O` (centres undefined) gave a melting point of 156 to 158 °C.
Compound `O=c1occc2cccnc12` came in with a melting point of 157 to 159 °C.
Consider `N#Cc1ccc(F)c(F)c1N`, for which the melting point was in the range of 92 to 94 °C.
The value for `COC(=O)NC(C(=O)O)C(C)C` (centres undefined) was 83 to 85 °C; that for `CC(C)Cn1cnc2c1c(=O)[nH]c(=O)n2Cc1ccccc1` was 179 to 181 °C.
As for `N#Cc1cnn(-c2cccc(C(=O)O)c2)c1N`, the melting point lay within 286 to 288 °C.
Compound `C#CCOc1ccc(NC)cc1` displayed a melting point of 46 to 48 °C.
Consider `NCC(O)COc1cccc(Cl)c1Cl` (centres undefined), for which the melting point was in the range of 110 to 112 °C.
`O=C(O)c1ccncc1Br` returned a melting point of 237 to 239 °C.
`O=C(CCl)c1c(-c2ccccc2)[nH]c2ccccc12` gave a melting point of 140 to 142 °C.
Turning to `Cc1cc(N)[nH]c(=O)c1`, the melting point lay in the range of 256 to 258 °C.
On to `N#Cc1ccc(OCC2CC2)nc1`, for which the melting point was 53 to 55 °C.
For the compound `O=C(O)c1cc(-c2ccncc2)nc2ccc(Br)cc12`, the melting point lay in the range of 340 to 342 °C.
Consider `O=C(O)c1[nH]nc2cc(OC(F)(F)F)ccc12`, for which the melting point is 261 to 263 °C.
In turn, `Cc1cc(NC(=O)CSCC(N)C(=O)O)no1` (centres undefined) yielded a melting point of 204 to 206 °C.
`NC(=S)Nc1cc(F)cc(F)c1`: the melting point fell in the range of 149 to 151 °C.
In turn, `Nc1ccc(-n2cncn2)c(C(F)(F)F)c1` yielded a melting point of 127 to 129 °C.
`Cn1cc(C#N)cc1C(=O)O`: the melting point was 239 to 241 °C.
The value for `O=C(O)C1C2CCCC21` (centres undefined) was 34 to 36 °C; that for `Cc1cc(C)nc(SCc2ccc(C(=O)NN)cc2)n1` was 135 to 137 °C.
As for `CCCCOc1ccc(-c2nnc(N)[nH]2)cc1`, the melting point was in the range of 200 to 202 °C.
Take `O=C(c1cccnc1)c1csc2ccccc12`: the melting point lay in the range of 109 to 111 °C.
Consider `Cc1cc(O)c(C=O)cc1C`, for which the melting point was 64 to 66 °C.
Consider `O=C(CCl)NCc1ccccc1COc1ccccc1`, for which the melting point was 100 to 102 °C.
